These results are taken from patent US8586620B2, “Substituted indole compounds having NOS inhibitory activity” (NeurAxon, Inc., priority 2005, dated 2013).

Assay [1] has as its system formalin-induced hind paw licking. Put plainly: Formalin-induced paw licking in mice. The format is in vivo. Conditions: intraperitoneally 30 minutes before formalin, Phase II (20 to 30 minute), FIG. 5. How it is done: Formalin Induced Hyperalgesia and Inflammation: In an experimental model of sustained inflammatory nociception associated with long term intracellular changes of nociceptive processing at the level of the spinal cord, mice or rats are subjected to a subplantar injection of formalin into a paw (Chapman et al., Brain Res. 697:258-261, 1995; Meller and Gebhart, Pain 52:127-136, 1993). Two distinct phases of spontaneous nociceptive behaviour exist: The first phase (Phase I) last about 5 minutes, followed by a second phase (Phase II), lasting approximately 40 minutes characterized by persistent shaking or licking of the injected paw (Fu et al., Neuroscience 101(4):1127-1135, 2000). Longer periods after injection of formalin results in the development of allodynia and hyperalgesia (1-4 weeks). […] Test compounds, including compound 12 and 7-NI, were dissolved in 1% DMSO/2% Tween 80/0.9% NaCl. Male or female ICR-derived mice weighing 23±2 g were housed in APEC® cages and maintained in a controlled temperature (22° C.-24° C.) and humidity (60%-80%) environment with 12 hr light-dark cycles for 1 week prior to use. Free access to standard lab chow and tap water was granted. […] The reduction of formalin-induced hind paw licking time was recorded during the following 20 to 30 minute period (Phase II).

The subject of assay [2] is CA1 hippocampal slices. The assay is described as follows: Evoked field potentials in CA1 hippocampal slices after OGD. The format is cell-based, rat. Conditions: slices after 10 min OGD; compound 12 50 μM, 7-NI 100 μM; FIG. 16. Here is the method:
Slice Preparation: Male Wistar rats, 180-200 gm, were anesthetized with halothane and decapitated. Their brains were removed and placed in artificial cerebral spinal fluid (ACSF) at 0.5° C. within 60 s of decapitation. […] Brains were hemisected and hippocampi were dissected out and sectioned into […] thick slices using a McIlwain Tissue chopper (Mickle Laboratory Engineering Co. Gomshall, GB). Sectioning was initiated approximately 1 mm from the rostral end of the hippocampus and approximately 12 slices were harvested from each hippocampus. Slices were distributed into groups in a rotational manner so that each group contained slices from all sectioned regions of the hippocampus. The hippocampal slices were placed on nylon mesh platforms in interface-type incubation chambers (6-8 slices per platform; 1 platform per chamber) for 90 min at 35° C. The ACSF in these chambers, and the atmosphere above it, was continuously gassed with 95% O2/5% CO2. […]
(a) Preservation of Evoked Field Potentials: The efficacy of synaptic transmission in these slices was evaluated using electrophysiological techniques. […] Evoked potentials (EP) were recorded in the CA1 from the stratum pyrimidale using glass micropipettes (2-5 megohms) filled with 150 mM NaCl. Population spike (PS) amplitude was measured from the peak downward deflection to the midway point between the 2 positive peaks. […]

The subject of assay [3] is Hippocampal slices. Put plainly: Mitochondrial metabolic activity in hippocampal slices after OGD, TTC staining. Conditions: 100 μM; 10 min OGD; control live normalized to 100%; n=5. The format is cell-based, rat. How it is done: Brain injury can be measured in brain sections by incubating sections of fresh brain in 2,3,5-triphenyltetrazolium chloride (TTC). TTC, which is colorless, is reduced by mitochondrial succinate dehydrogenase in living tissue to a red formazan product. Combinations of photography or scanning and image analysis are then used to measure the area of normal (red) and damaged (uncolored) tissue at the surface of each section face and estimate the extent of damage. The TTC staining technique has been further refined by members of the Experimental Stroke Group at IBS (Study Host: University of Ottawa, Canada) using a solvent to extract the colored formazan product from tissue sections and measured it spectrophotometrically, thus obtaining a simple, objective measure of damage (Preston and Webster, J. Neurosci. Meth. 94(2):187-92, 1999). […]
(b) Preservation of Mitochondrial Metabolic Activity by compound 12 using TTC staining: Hippocampal slices exposed to 10 min OGD (control dead) retained 25±5% (n=5 groups of 4-5 slices) of the absorbance of slices not subjected to an insult (control live—normalized to 100%), whereas slices preincubated in 0.3 mM calcium 30 min prior to and during OGD retained 107±27% (n=5) of their absorbance (control protection). […]

Entries after “also recorded” stand apart in the source; their conditions may differ.

Regarding `O=[N+]([O-])c1cccc2cn[nH]c12` [Compound 7-NI, 7-nitroindazole], in assay [1], the “formalin-induced hind paw licking” value was “reduction in the frequency of paw licking”. In addition, the “preservation of population spike” value in assay [2] is “did not preserve population spike; also recorded: fiber volleys, but no PSs”. Further, the “absorbance retained (TTC staining)” value in assay [3] is given as 81±18%.
